Experimental data: BindingDB's records for doi:10.1021/jm00043a006 (Parke-Davis Pharmaceutical Research, 1994)

What follows are compounds tested against T1, Dimer of Gag-Pol polyprotein [489-587] (Human immunodeficiency virus 1, UniProt P12497) (assay: Protease Inhibition Assay). Conditions: pH 4.7; 37 °C.
T1 construct: 489-587
Procedure: For determination of IC50 values, HIV-1 protease was added to assay buffer containing inhibitor and the substrate (H-His-Lys-Ala-Arg-Val-Leu- (p-NO2) Phe-Glu-Ala-norleucine-Ser-NH2). The Leu- (p-NO2) Phe bond of the substrate was cleaved by the enzyme, and the substrate and products were separated by reversed-phase HPLC. Absorbance was measured at 220 nm, peak areas were determined, and percentage conversion to product was calculated.

Row | Structure (SMILES) | IC50 [µM]
1 | Nc1cccc(OCCCc2c(O)c3ccccc3oc2=O)c1 [3-[3-(3-aminophenoxy)propyl]-4-hydroxy-2H-chromen-2-one] | 6.4
2 | NC(=O)c1cccc(OCCCc2c(O)c3ccccc3oc2=O)c1 [3-[3-(4-Hydroxy-2-oxo-2H-1-benzopyran-3-yl)prpoxyl-benzamide] | 3.9
3 | O=C(O)c1cccc(OCCCc2c(O)c3ccccc3oc2=O)c1 [3-[3-(4-hydroxy-2-oxo-2H-chromen-3-yl)propoxy]benzoic acid] | 7
4 | O=c1oc2ccccc2c(O)c1CCCO [4-Hydroxy-3-(3-hydroxypropyl)-2H-1-benzopyran-2-one] | 86
5 | O=c1oc2ccccc2c(O)c1CC/C(=N/O)c1ccccc1 [4-Hydroxy-3-[3-(hydroroKyimino)-3-phenylpropyl] -2H-1-benzopyran-2-one] | 71
6 | O=c1[nH]c2ccccc2c(O)c1CCCOc1ccccc1 [4-hydroxy-3-(3-phenoxypropyl)-1,2-dihydroquinolin-2-one] | > 200
7 | O=c1oc2ccccc2c(O)c1CCCCOc1ccccc1 [4-hydroxy-3-(4-phenoxybutyl)-2H-chromen-2-one] | > 100
8 | COc1ccccc1OCCCc1c(O)c2ccccc2oc1=O [4-hydroxy-3-[3-(2-methoxyphenoxy)propyl]-2H-chromen-2-one] | 44
9 | COc1ccccc1CCCCc1c(O)c2ccccc2oc1=O [4-hydroxy-3-[4-(2-methoxyphenyl)butyl]-2H-chromen-2-one] | 1.7
10 | COc1ccc(CCCCc2c(O)c3ccccc3oc2=O)cc1 [4-hydroxy-3-[4-(4-methoxyphenyl)butyl]-2H-chromen-2-one] | > 100
11 | O=c1oc2ccccc2c(O)c1CCCOc1cccc(CO)c1 [4-hydroxy-3-{3-[3-(hydroxymethyl)phenoxy]propyl}-2H-chromen-2-one] | 2.3
12 | COc1ccccc1CCCCc1c(O)c2ccc(OCc3ccccc3)cc2oc1=O [7-(benzyloxy)-4-hydroxy-3-[4-(2-methoxyphenyl)butyl]-2H-chromen-2-one] | > 100
13 | CCOC(=O)c1cccc(OCCCc2c(O)c3ccccc3oc2=O)c1 [ethyl 3-[3-(4-hydroxy-2-oxo-2H-chromen-3-yl)propoxy]benzoate] | 1.4
